Values of other authors as cited in patent publication US20140271903A1, “USE OF THERMO-SENSITIVE GEL FOR CONTROLLED DELIVERY OF ALK-5 INHIBITORS TO THE EYE AND RELATED METHODS” (NORTHEAST OHIO MEDICAL UNIVERSITY, priority 2013, published 2014).

Assays:
[1] = system: rabbit subconjunctival fibroblasts; details: cultured rabbit subconjunctival fibroblasts
[2] = system: rabbit subconjunctival fibroblasts

| SMILES | bleb survival (in vivo rabbit GFS model; recent rabbit studies, post-operative scarring after GFS) | downstream proteins of TGF-β: CTGF and a-SMA [1] | cytotoxicity and cell death versus antimetabolites (5-FU, MMC) [2] | bleb survival period compared to MMC (in vivo rabbit GFS model; in vivo rabbit GFS model) | period of filtering bleb survival (in vivo rabbit GFS model; in vivo rabbit GFS model) | toxicity in GFS compared to MMC (in vivo rabbit GFS model; rabbit, in vivo) |
| --- | --- | --- | --- | --- | --- | --- |
| CO[C@@]12[C@H](COC(N)=O)C3=C(C(=O)C(C)=C(N)C3=O)N1C[C@@H]1N[C@@H]12 [MMC, mitomycin-C] | around 30 days |  |  |  |  |  |
| Cc1cccc(-c2[nH]c(C(C)(C)C)nc2-c2ccc3c(c2)OCO3)n1 [SB-505124] |  | marked reduction | less cytotoxic and causing less cell death than antimetabolites | substantially shorter compared to MMC | extended the period of filtering bleb survival | substantially lower than that of MMC |
